Experimental data from ChEMBL document CHEMBL3414489, “3,4-Diaza-bicyclo[4.1.0]hept-4-en-2-one phenoxypropylamine analogs of irdabisant (CEP-26401) as potent histamine-3 receptor inverse agonists with robust wake-promoting activity” (Eur J Med Chem, 2015).

Experiments:
Histamine H3 receptor [1] = biological target: Histamine H3 receptor (Homo sapiens, UniProt Q9Y5N1); experiment: Binding affinity to human histamine H3 receptor
Histamine H3 receptor [2] = biological target: Histamine H3 receptor (Rattus norvegicus, UniProt Q9QYN8); experiment: Binding affinity to rat histamine H3 receptor
Sequence of Histamine H3 receptor (Rattus norvegicus, UniProt Q9QYN8) (Q9QYN8 whole entry): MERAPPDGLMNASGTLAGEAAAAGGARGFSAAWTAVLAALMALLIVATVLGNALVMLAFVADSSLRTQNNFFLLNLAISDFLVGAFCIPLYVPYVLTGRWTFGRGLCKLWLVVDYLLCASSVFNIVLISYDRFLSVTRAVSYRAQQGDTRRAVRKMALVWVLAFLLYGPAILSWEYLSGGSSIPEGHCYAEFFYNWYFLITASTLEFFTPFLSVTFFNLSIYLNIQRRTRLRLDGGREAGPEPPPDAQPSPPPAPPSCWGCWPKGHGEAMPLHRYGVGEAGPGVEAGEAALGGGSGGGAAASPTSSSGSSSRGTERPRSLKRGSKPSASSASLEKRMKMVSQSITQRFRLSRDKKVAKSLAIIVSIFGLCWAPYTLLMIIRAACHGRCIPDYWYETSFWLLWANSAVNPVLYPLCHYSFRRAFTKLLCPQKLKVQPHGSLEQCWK

Cytochrome P450 1A2 = biological target: T1, Cytochrome P450 1A2 (Homo sapiens, UniProt P05177); experiment: Inhibition of CYP1A2 (unknown origin); assay type: ADME
T1 sequence (P05177 whole entry): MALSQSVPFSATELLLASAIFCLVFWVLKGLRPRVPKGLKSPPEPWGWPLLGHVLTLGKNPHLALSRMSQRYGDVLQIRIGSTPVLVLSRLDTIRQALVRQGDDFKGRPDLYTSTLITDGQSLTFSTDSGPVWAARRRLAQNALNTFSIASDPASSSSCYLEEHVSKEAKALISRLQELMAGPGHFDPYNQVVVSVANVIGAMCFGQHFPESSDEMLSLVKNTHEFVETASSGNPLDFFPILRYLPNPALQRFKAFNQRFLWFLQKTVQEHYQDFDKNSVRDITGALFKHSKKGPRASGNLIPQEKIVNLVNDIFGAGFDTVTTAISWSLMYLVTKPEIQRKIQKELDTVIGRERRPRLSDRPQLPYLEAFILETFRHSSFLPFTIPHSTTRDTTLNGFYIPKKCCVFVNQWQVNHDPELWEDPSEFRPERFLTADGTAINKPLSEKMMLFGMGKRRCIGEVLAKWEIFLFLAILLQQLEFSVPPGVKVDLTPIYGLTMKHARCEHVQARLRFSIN

[3] = Clearance in iv dosed rat; assay type: ADME, organism-based; conditions: in vivo
[4] = Half life in monkey liver microsomes; assay type: ADME, Macaca mulatta; conditions: rhesus monkey
[5] = Half life in rat liver microsomes; assay type: ADME
Cytochrome P450 2D6 = Cytochrome P450 2D6 (Homo sapiens, UniProt P10635); experiment: Inhibition of CYP2D6 (unknown origin); assay type: ADME
Sequence of Cytochrome P450 2D6 (P10635 whole entry): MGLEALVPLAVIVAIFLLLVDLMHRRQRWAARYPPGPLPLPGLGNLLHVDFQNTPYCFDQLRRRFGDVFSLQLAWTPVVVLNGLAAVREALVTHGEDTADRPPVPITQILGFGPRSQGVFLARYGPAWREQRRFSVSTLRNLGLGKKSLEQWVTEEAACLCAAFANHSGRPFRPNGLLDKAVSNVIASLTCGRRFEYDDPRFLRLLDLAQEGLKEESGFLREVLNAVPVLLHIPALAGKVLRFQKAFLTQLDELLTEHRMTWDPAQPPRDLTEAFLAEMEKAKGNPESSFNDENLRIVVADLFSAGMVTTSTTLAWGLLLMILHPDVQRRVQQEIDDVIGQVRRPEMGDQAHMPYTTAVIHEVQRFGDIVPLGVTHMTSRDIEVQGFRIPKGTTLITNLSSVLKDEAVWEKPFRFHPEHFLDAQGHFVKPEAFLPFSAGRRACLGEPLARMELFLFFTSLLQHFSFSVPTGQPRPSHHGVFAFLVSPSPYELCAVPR

Cytochrome P450 2C9 = Cytochrome P450 2C9 (Homo sapiens, UniProt P11712); experiment: Inhibition of CYP2C9 (unknown origin); assay type: ADME
Sequence of Cytochrome P450 2C9 (P11712 whole entry): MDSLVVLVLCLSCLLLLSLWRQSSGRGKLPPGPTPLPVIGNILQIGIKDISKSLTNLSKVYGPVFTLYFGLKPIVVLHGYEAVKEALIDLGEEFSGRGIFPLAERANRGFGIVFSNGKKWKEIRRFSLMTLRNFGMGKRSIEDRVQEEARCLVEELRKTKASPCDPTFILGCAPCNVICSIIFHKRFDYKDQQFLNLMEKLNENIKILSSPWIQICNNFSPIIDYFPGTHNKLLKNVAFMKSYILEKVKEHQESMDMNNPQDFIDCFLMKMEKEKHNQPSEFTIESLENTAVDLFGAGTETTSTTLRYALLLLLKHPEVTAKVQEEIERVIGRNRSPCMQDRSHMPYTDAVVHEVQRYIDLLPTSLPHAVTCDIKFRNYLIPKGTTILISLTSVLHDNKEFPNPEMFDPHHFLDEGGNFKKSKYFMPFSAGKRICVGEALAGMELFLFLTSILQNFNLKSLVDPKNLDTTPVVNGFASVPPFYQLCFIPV

[6] = Half life in human liver microsomes; assay type: ADME
[7] = Half life in iv dosed rat; assay type: ADME, organism-based; conditions: in vivo
Cytochrome P450 3A4 = Cytochrome P450 3A4 (Homo sapiens, UniProt P08684); experiment: Inhibition of CYP3A4 (unknown origin); assay type: ADME
Sequence of Cytochrome P450 3A4 (P08684 whole entry): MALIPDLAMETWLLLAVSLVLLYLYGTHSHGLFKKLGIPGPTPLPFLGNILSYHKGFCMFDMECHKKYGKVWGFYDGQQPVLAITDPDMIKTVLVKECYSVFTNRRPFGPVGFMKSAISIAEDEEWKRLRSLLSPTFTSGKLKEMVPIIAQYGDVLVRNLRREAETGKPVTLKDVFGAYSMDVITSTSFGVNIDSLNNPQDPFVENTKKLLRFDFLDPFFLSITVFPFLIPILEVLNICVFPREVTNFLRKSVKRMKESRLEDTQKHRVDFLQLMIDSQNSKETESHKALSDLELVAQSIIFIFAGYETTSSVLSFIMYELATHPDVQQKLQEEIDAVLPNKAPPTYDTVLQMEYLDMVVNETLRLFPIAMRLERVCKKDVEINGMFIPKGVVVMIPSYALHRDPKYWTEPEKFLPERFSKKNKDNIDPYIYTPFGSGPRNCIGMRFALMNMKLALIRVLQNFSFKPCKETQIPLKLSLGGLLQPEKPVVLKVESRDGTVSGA

[8] = Half life in mouse liver microsomes; assay type: ADME
[9] = Half life in dog liver microsomes; assay type: ADME, Canis lupus familiaris
Cytochrome P450 2C19 = Cytochrome P450 2C19 (Homo sapiens, UniProt P33261); experiment: Inhibition of CYP2C19 (unknown origin); assay type: ADME
Sequence of Cytochrome P450 2C19 (P33261 whole entry): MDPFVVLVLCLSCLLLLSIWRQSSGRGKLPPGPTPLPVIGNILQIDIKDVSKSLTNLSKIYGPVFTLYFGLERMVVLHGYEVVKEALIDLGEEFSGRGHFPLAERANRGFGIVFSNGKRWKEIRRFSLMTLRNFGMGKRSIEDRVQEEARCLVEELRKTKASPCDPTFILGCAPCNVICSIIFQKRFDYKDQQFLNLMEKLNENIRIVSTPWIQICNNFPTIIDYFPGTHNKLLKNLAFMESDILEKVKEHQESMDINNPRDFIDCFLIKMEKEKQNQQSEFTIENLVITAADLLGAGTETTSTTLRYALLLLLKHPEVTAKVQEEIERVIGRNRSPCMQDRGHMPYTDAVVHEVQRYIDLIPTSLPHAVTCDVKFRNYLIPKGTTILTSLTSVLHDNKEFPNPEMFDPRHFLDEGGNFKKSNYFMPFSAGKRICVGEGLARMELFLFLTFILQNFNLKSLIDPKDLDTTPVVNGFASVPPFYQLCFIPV

[10] = Oral bioavailability in rat; assay type: ADME, organism-based; conditions: in vivo

Sequence of Histamine H3 receptor (Homo sapiens, UniProt Q9Y5N1) (Q9Y5N1 whole entry): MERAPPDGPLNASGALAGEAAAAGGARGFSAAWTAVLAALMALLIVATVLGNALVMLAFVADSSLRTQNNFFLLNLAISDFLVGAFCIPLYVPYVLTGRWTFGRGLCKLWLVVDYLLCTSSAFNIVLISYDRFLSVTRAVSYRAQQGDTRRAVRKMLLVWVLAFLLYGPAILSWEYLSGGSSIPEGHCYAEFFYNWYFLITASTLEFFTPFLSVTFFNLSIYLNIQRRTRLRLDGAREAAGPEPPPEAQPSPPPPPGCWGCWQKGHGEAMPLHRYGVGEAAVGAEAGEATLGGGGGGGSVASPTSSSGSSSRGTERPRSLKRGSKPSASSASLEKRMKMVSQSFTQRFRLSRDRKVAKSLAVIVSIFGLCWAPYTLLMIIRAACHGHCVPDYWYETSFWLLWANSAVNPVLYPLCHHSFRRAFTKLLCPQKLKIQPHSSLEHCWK

| Ki (Histamine H3 receptor [1]) | Ki (Histamine H3 receptor [2]) | IC50 (Cytochrome P450 1A2) | clearance [3] | half-life [4] | half-life [5] | IC50 (Cytochrome P450 2D6) | IC50 (Cytochrome P450 2C9) | half-life [6] | half-life [7] | IC50 (Cytochrome P450 3A4) | half-life [8] | half-life [9] | IC50 (Cytochrome P450 2C19) | bioavailability [10] | SMILES |
| --- | --- | --- | --- | --- | --- | --- | --- | --- | --- | --- | --- | --- | --- | --- | --- |
| 19 nM | 54 nM |  |  |  |  |  |  |  |  |  |  |  |  |  | O=C1NN=C(c2ccc(OCCCN3CCCCC3)cc2)C2CC12 (racemic) |
| 49 nM | 103 nM |  |  |  |  |  |  |  |  |  |  |  |  |  | Cc1cc(OCCCN2CCC[C@@H]2C)ccc1C1=NNC(=O)C2CC12 (mixture of isomers) |
| 2.3 nM | 9.8 nM | > 30000 nM | 19 mL/min/kg | > 40 min | > 40 min | > 30000 nM | > 30000 nM | > 40 min | 108 min | > 30000 nM | > 40 min | > 40 min | > 30000 nM | > 25% | C[C@H](COc1ccc(C2=NNC(=O)C3CC23)cc1)CN1CCC[C@H]1C (mixture of isomers) |
| 3.7 nM | 13 nM | > 30000 nM | 11 mL/min/kg | > 40 min | > 40 min |  |  | > 40 min | 84 min |  | > 40 min | > 40 min |  | > 25% | C[C@@H]1CCCN1CCCOc1ccc(C2=NNC(=O)C3CC23)cc1 (some centres not stated) |
| 7 nM | 66 nM |  |  |  |  |  |  |  |  |  |  |  |  |  | Cc1cc(OCCCN2CCC[C@H]2C)ccc1C1=NNC(=O)C2CC12 (mixture of isomers) |
